# Results as given in PubChem BioAssay (NCI).
#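 Five concentrations, 48 hours, 96-well plates. TGI: concentration producing complete growth inhibition.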
# Key:
# Experiment in all cases: NCI tumour cell line growth inhibition, 48 h
# 786-0 renal = tested on: 786-0 renal
# A498 renal = tested on: A498 renal
# A549 NSCLC = tested on: A549 NSCLC
# ACHN renal = tested on: ACHN renal
# BT-549 breast = tested on: BT-549 breast
# CAKI-1 renal = tested on: CAKI-1 renal
# CCRF-CEM leukemia = tested on: CCRF-CEM leukemia
# COLO 205 colon = tested on: COLO 205 colon
# DU-145 prostate = tested on: DU-145 prostate
# EKVX NSCLC = tested on: EKVX NSCLC
# HCC-2998 colon = tested on: HCC-2998 colon
# HCT-116 colon = tested on: HCT-116 colon
# HCT-15 colon = tested on: HCT-15 colon
# HL-60(TB) leukemia = tested on: HL-60(TB) leukemia
# HOP-62 NSCLC = tested on: HOP-62 NSCLC
# HOP-92 NSCLC = tested on: HOP-92 NSCLC
# HT29 colon = tested on: HT29 colon
# IGROV1 ovarian = tested on: IGROV1 ovarian
# K-562 leukemia = tested on: K-562 leukemia
# KM12 colon = tested on: KM12 colon
# LOX IMVI melanoma = tested on: LOX IMVI melanoma
# M14 melanoma = tested on: M14 melanoma
# MALME-3M melanoma = tested on: MALME-3M melanoma
# MCF7 breast = tested on: MCF7 breast
# MDA-MB-231 breast = tested on: MDA-MB-231 breast
# MDA-MB-435 = tested on: MDA-MB-435
# MDA-N = tested on: MDA-N
# MOLT-4 leukemia = tested on: MOLT-4 leukemia
# NCI-H226 lung = tested on: NCI-H226 lung
# NCI-H23 lung = tested on: NCI-H23 lung
# NCI-H460 lung = tested on: NCI-H460 lung
# NCI-H522 lung = tested on: NCI-H522 lung
# NCI/ADR-RES ovarian = tested on: NCI/ADR-RES ovarian
# OVCAR-3 ovarian = tested on: OVCAR-3 ovarian
# OVCAR-4 ovarian = tested on: OVCAR-4 ovarian
# OVCAR-5 ovarian = tested on: OVCAR-5 ovarian
# OVCAR-8 ovarian = tested on: OVCAR-8 ovarian
# PC-3 prostate = tested on: PC-3 prostate
# RPMI-8226 leukemia = tested on: RPMI-8226 leukemia
# RXF 393 renal = tested on: RXF 393 renal
# SF-268 CNS = tested on: SF-268 CNS
# SF-295 CNS = tested on: SF-295 CNS
# SF-539 CNS = tested on: SF-539 CNS
# SK-MEL-2 melanoma = tested on: SK-MEL-2 melanoma
# SK-MEL-28 melanoma = tested on: SK-MEL-28 melanoma
# SK-MEL-5 melanoma = tested on: SK-MEL-5 melanoma
# SK-OV-3 ovarian = tested on: SK-OV-3 ovarian
# SN12C renal = tested on: SN12C renal
# SNB-19 CNS = tested on: SNB-19 CNS
# SNB-75 CNS = tested on: SNB-75 CNS
# SR leukemia = tested on: SR leukemia
# SW-620 colon = tested on: SW-620 colon
# T-47D breast = tested on: T-47D breast
# TK-10 renal = tested on: TK-10 renal
# U251 CNS = tested on: U251 CNS
# UACC-257 melanoma = tested on: UACC-257 melanoma
# UACC-62 melanoma = tested on: UACC-62 melanoma
# UO-31 renal = tested on: UO-31 renal
smiles,measurement,setting,value
C=CC1(CC[C@]2(c3ccc(OC)c(OC)c3)C=[N+]([O-])O[C@H](O[C@@H]3CCCC[C@H]3C(C)(C)c3ccccc3)C2)OCC(C)(C)CO1,TGI,786-0 renal,> 45.8 µM
same,TGI,A498 renal,> 61 µM
same,TGI,A549 NSCLC,> 54.8 µM
same,TGI,ACHN renal,> 50 µM
same,TGI,BT-549 breast,98.6 µM
same,TGI,CAKI-1 renal,> 28 µM
same,TGI,CCRF-CEM leukemia,23.8 µM
same,TGI,COLO 205 colon,> 53.3 µM
same,TGI,DU-145 prostate,49.9 µM
same,TGI,EKVX NSCLC,45.5 µM
same,TGI,HCC-2998 colon,31.3 µM
same,TGI,HCT-116 colon,41.3 µM
same,TGI,HCT-15 colon,> 48.5 µM
same,TGI,HL-60(TB) leukemia,4.81 µM
same,TGI,HOP-62 NSCLC,36.5 µM
same,TGI,HOP-92 NSCLC,> 46.6 µM
same,TGI,HT29 colon,28.2 µM
same,TGI,IGROV1 ovarian,23.7 µM
same,TGI,K-562 leukemia,> 56.9 µM
same,TGI,KM12 colon,41.4 µM
same,TGI,LOX IMVI melanoma,35.1 µM
same,TGI,M14 melanoma,> 58.1 µM
same,TGI,MALME-3M melanoma,24.8 µM
same,TGI,MCF7 breast,> 42.4 µM
same,TGI,MDA-MB-231 breast,33.9 µM
same,TGI,MDA-MB-435,> 51.1 µM
same,TGI,MDA-N,24.7 µM
same,TGI,MOLT-4 leukemia,21.6 µM
same,TGI,NCI-H226 lung,38 µM
same,TGI,NCI-H23 lung,> 100 µM
same,TGI,NCI-H460 lung,> 59.8 µM
same,TGI,NCI-H522 lung,17.1 µM
same,TGI,NCI/ADR-RES ovarian,31 µM
same,TGI,OVCAR-3 ovarian,25.1 µM
same,TGI,OVCAR-4 ovarian,28.9 µM
same,TGI,OVCAR-5 ovarian,39 µM
same,TGI,OVCAR-8 ovarian,40.6 µM
same,TGI,PC-3 prostate,28.3 µM
same,TGI,RPMI-8226 leukemia,26.5 µM
same,TGI,RXF 393 renal,> 48.4 µM
same,TGI,SF-268 CNS,52.1 µM
same,TGI,SF-295 CNS,> 51.2 µM
same,TGI,SF-539 CNS,31.2 µM
same,TGI,SK-MEL-2 melanoma,28.7 µM
same,TGI,SK-MEL-28 melanoma,53.8 µM
same,TGI,SK-MEL-5 melanoma,28.3 µM
same,TGI,SK-OV-3 ovarian,> 65.3 µM
same,TGI,SN12C renal,22.8 µM
same,TGI,SNB-19 CNS,> 54.1 µM
same,TGI,SNB-75 CNS,> 52.2 µM
same,TGI,SR leukemia,> 38.9 µM
same,TGI,SW-620 colon,> 46.5 µM
same,TGI,T-47D breast,> 46.7 µM
same,TGI,TK-10 renal,> 67.8 µM
same,TGI,U251 CNS,> 50.5 µM
same,TGI,UACC-257 melanoma,> 54.2 µM
same,TGI,UACC-62 melanoma,33.9 µM
same,TGI,UO-31 renal,> 48.7 µM
c1ccc2c(c1)Nc1cccc3c1c-2nc1ccccc13,TGI,A498 renal,> 100 µM
same,TGI,ACHN renal,2.01 µM
same,TGI,BT-549 breast,> 100 µM
same,TGI,CCRF-CEM leukemia,4.81 µM
same,TGI,DU-145 prostate,2.6 µM
same,TGI,HCT-116 colon,1.79 µM
same,TGI,HL-60(TB) leukemia,3.3 µM
same,TGI,K-562 leukemia,2.92 µM
same,TGI,KM12 colon,3.44 µM
same,TGI,MDA-MB-231 breast,2.69 µM
same,TGI,MDA-N,2.05 µM
same,TGI,MOLT-4 leukemia,1.78 µM
same,TGI,NCI-H226 lung,> 100 µM
same,TGI,PC-3 prostate,2.43 µM
same,TGI,RPMI-8226 leukemia,3.48 µM
same,TGI,SN12C renal,2.79 µM
same,TGI,SNB-19 CNS,> 100 µM
same,TGI,SR leukemia,4.83 µM
same,TGI,T-47D breast,5.09 µM
same,TGI,UO-31 renal,2.83 µM
CCOC(=O)c1sc2nc(SC)nc(Nc3ccc4c(c3)OCCO4)c2c1N,TGI,A498 renal,27.4 µM
same,TGI,A549 NSCLC,> 100 µM
same,TGI,ACHN renal,19.8 µM
same,TGI,BT-549 breast,32 µM
same,TGI,CAKI-1 renal,49.2 µM
same,TGI,CCRF-CEM leukemia,> 100 µM
same,TGI,COLO 205 colon,> 100 µM
same,TGI,DU-145 prostate,33.5 µM
same,TGI,EKVX NSCLC,26.6 µM
same,TGI,HCC-2998 colon,> 100 µM
same,TGI,HCT-116 colon,42.1 µM
same,TGI,HL-60(TB) leukemia,> 100 µM
same,TGI,HOP-62 NSCLC,29.5 µM
same,TGI,HOP-92 NSCLC,27.4 µM
same,TGI,HT29 colon,53.3 µM
same,TGI,IGROV1 ovarian,78.6 µM
same,TGI,K-562 leukemia,> 100 µM
same,TGI,KM12 colon,78.5 µM
same,TGI,LOX IMVI melanoma,> 100 µM
same,TGI,M14 melanoma,31.7 µM
same,TGI,MALME-3M melanoma,30.5 µM
same,TGI,MCF7 breast,23.6 µM
same,TGI,MDA-MB-231 breast,25.9 µM
same,TGI,MDA-MB-435,42.7 µM
same,TGI,MDA-N,> 100 µM
same,TGI,MOLT-4 leukemia,> 100 µM
same,TGI,NCI-H226 lung,> 100 µM
same,TGI,NCI-H23 lung,36.5 µM
same,TGI,NCI-H460 lung,> 100 µM
same,TGI,NCI-H522 lung,23.8 µM
same,TGI,NCI/ADR-RES ovarian,44.7 µM
same,TGI,OVCAR-3 ovarian,26.7 µM
same,TGI,OVCAR-4 ovarian,30.8 µM
same,TGI,OVCAR-5 ovarian,54.7 µM
same,TGI,OVCAR-8 ovarian,23.1 µM
same,TGI,PC-3 prostate,29.7 µM
same,TGI,RPMI-8226 leukemia,77.1 µM
same,TGI,RXF 393 renal,16.9 µM
same,TGI,SF-268 CNS,20.4 µM
same,TGI,SF-295 CNS,58.1 µM
same,TGI,SF-539 CNS,18.2 µM
same,TGI,SK-MEL-2 melanoma,33.7 µM
same,TGI,SK-MEL-28 melanoma,> 100 µM
same,TGI,SK-MEL-5 melanoma,26.7 µM
same,TGI,SN12C renal,29.9 µM
same,TGI,SNB-19 CNS,> 100 µM
same,TGI,SR leukemia,> 100 µM
same,TGI,SW-620 colon,> 100 µM
same,TGI,T-47D breast,26.2 µM
same,TGI,TK-10 renal,30.3 µM
same,TGI,U251 CNS,21.2 µM
same,TGI,UACC-257 melanoma,> 100 µM
same,TGI,UACC-62 melanoma,23.5 µM
same,TGI,UO-31 renal,36.7 µM
COc1ccc(C2(CC(C)C)CCN(S(=O)(=O)c3ccc(C)cc3)C2)cc1OC (centres undefined),TGI,786-0 renal,> 100 µM
same,TGI,A549 NSCLC,> 100 µM
same,TGI,ACHN renal,> 100 µM
same,TGI,BT-549 breast,> 100 µM
same,TGI,CAKI-1 renal,> 100 µM
same,TGI,CCRF-CEM leukemia,64.3 µM
same,TGI,COLO 205 colon,> 100 µM
same,TGI,DU-145 prostate,> 100 µM
same,TGI,EKVX NSCLC,> 100 µM
same,TGI,HCC-2998 colon,> 100 µM
same,TGI,HCT-116 colon,92.6 µM
same,TGI,HCT-15 colon,> 100 µM
same,TGI,HOP-62 NSCLC,> 100 µM
same,TGI,HT29 colon,> 100 µM
same,TGI,IGROV1 ovarian,> 100 µM
same,TGI,K-562 leukemia,76.5 µM
same,TGI,KM12 colon,68 µM
same,TGI,LOX IMVI melanoma,74.3 µM
same,TGI,M14 melanoma,> 100 µM
same,TGI,MCF7 breast,> 100 µM
same,TGI,MDA-MB-231 breast,> 100 µM
same,TGI,MDA-MB-435,> 100 µM
same,TGI,MDA-N,> 100 µM
same,TGI,MOLT-4 leukemia,17.4 µM
same,TGI,NCI-H226 lung,> 100 µM
same,TGI,NCI-H23 lung,> 100 µM
same,TGI,NCI-H460 lung,> 100 µM
same,TGI,NCI-H522 lung,> 100 µM
same,TGI,NCI/ADR-RES ovarian,70.5 µM
same,TGI,OVCAR-3 ovarian,55.8 µM
same,TGI,OVCAR-4 ovarian,> 100 µM
same,TGI,OVCAR-5 ovarian,> 100 µM
same,TGI,PC-3 prostate,> 100 µM
same,TGI,RXF 393 renal,> 100 µM
same,TGI,SF-268 CNS,95.4 µM
same,TGI,SF-295 CNS,> 100 µM
same,TGI,SF-539 CNS,> 100 µM
same,TGI,SK-MEL-2 melanoma,47.2 µM
same,TGI,SK-MEL-28 melanoma,> 100 µM
same,TGI,SK-MEL-5 melanoma,32.6 µM
same,TGI,SK-OV-3 ovarian,> 100 µM
same,TGI,SN12C renal,> 100 µM
same,TGI,SNB-19 CNS,> 100 µM
same,TGI,SNB-75 CNS,> 100 µM
same,TGI,SR leukemia,> 100 µM
same,TGI,SW-620 colon,> 100 µM
same,TGI,T-47D breast,> 100 µM
same,TGI,TK-10 renal,> 100 µM
same,TGI,U251 CNS,> 100 µM
same,TGI,UACC-257 melanoma,> 100 µM
same,TGI,UACC-62 melanoma,> 100 µM
same,TGI,UO-31 renal,> 100 µM
